These results are taken from PMC3463757 (2012).

The target in test [1] is ROCK2 (Homo sapiens, UniProt O75116). Put plainly: Invitrogen Z-Lyte FRET kinase assay, […] peptide substrate. It is filed as biochemical.
For test [2], the target named is ROCK1 (Homo sapiens, UniProt Q13464). Described as above. It is filed as biochemical.
Sequence of ROCK1 (Q13464 2-1354): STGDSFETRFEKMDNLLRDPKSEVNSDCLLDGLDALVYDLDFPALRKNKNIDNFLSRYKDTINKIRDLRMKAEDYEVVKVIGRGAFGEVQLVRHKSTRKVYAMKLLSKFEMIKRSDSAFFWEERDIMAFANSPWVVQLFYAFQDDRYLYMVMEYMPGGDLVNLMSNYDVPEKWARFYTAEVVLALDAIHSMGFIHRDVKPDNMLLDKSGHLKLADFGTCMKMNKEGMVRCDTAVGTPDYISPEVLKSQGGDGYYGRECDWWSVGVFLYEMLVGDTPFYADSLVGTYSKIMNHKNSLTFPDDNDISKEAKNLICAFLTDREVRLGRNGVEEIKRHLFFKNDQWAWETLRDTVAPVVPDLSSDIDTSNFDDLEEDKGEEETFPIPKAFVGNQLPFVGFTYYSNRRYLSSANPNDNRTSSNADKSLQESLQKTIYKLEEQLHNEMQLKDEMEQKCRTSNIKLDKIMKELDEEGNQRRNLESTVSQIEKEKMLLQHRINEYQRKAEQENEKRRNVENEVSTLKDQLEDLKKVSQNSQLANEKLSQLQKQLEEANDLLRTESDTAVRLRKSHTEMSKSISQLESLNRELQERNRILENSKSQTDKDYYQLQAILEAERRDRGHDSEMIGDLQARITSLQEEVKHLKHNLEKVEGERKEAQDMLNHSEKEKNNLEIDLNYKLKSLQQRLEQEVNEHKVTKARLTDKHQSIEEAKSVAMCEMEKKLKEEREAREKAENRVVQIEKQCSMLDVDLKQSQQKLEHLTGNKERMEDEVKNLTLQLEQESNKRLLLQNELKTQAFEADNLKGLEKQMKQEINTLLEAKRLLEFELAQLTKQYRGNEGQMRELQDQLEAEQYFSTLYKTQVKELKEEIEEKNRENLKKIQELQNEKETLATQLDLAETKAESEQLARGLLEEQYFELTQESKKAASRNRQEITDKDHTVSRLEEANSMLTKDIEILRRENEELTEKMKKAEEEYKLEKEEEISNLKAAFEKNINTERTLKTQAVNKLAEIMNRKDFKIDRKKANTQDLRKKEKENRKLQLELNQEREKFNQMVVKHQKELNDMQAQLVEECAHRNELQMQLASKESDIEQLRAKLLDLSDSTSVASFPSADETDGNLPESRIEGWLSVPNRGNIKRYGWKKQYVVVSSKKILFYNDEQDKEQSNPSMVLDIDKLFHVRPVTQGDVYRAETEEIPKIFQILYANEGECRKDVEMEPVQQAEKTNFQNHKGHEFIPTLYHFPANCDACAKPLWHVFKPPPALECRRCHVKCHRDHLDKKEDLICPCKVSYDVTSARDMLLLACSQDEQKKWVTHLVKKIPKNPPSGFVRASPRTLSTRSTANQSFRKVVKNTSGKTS

Sequence of ROCK2 (O75116 whole entry): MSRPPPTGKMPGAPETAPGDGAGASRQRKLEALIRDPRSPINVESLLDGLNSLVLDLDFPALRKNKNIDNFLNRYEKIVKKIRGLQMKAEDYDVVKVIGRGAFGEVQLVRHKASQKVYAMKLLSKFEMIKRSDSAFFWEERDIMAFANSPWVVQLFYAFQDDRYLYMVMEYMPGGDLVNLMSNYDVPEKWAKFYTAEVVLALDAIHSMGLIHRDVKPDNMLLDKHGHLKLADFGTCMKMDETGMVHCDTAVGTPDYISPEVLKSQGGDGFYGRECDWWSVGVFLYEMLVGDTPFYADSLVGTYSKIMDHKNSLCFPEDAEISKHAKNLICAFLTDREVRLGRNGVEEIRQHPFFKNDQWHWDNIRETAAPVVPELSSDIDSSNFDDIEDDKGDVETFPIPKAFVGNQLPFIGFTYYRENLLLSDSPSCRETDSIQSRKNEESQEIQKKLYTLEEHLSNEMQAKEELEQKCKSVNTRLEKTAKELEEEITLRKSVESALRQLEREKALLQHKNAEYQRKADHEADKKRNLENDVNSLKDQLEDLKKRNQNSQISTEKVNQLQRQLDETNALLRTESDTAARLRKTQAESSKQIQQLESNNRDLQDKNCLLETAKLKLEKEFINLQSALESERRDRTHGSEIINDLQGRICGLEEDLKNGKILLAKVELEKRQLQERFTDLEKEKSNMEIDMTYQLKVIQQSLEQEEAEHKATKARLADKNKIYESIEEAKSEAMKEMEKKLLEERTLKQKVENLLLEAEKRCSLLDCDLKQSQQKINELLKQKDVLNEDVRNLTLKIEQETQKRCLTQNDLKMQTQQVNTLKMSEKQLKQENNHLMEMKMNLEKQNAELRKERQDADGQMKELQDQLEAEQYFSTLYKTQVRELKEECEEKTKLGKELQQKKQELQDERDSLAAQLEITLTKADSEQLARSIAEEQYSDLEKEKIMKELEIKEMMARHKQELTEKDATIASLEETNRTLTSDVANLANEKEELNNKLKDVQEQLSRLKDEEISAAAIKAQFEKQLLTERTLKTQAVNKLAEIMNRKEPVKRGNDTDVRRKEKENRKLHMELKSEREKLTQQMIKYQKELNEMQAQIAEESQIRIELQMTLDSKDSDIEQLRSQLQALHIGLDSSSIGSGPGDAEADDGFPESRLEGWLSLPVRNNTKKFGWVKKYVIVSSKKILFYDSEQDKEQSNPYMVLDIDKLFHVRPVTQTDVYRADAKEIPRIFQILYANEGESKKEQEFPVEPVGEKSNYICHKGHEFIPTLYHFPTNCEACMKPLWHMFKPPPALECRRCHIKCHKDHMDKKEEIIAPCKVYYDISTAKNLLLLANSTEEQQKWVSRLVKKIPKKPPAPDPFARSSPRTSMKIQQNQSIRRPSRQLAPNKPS

With RKI-1313, the IC50 in test [1] turned out to be 8 µM; in test [2], 34 µM.

By IC50 is commonly meant the concentration that gives 50% inhibition. High values mean weaker potency, low ones greater potency.
